Legend:
[1] = target: T1, peripheral DDC (Homo sapiens, UniProt P20711); conditions: CD doses used in current clinical practice; cited from earlier work
T1 construct: host or cells: human subjects in vivo (cited study)
T1 sequence (P20711 1-480): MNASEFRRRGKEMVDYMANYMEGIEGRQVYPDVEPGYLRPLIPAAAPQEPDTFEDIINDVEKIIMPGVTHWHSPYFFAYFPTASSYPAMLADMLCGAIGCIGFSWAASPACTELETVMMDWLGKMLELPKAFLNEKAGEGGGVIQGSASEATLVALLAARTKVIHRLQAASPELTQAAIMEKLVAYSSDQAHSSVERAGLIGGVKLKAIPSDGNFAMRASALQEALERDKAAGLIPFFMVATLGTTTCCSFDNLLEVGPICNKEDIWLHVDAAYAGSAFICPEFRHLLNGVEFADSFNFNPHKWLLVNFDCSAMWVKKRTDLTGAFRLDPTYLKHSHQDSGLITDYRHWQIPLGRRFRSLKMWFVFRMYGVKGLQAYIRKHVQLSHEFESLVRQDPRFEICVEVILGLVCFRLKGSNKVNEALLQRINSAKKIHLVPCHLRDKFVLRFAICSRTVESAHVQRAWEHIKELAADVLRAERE

[2] = 50 mg oral CD; serum CD time course; good/rapid (N=4) and poor/slow (N=5) absorbers; cited from earlier work
[3] = target: T2, dopamine decarboxylase (DDC) (Homo sapiens, UniProt P20711); assay: 13CO2 breath test after 13C-labeled LD, with CD pretreatment or simultaneous CD; type: in vivo
T2 construct: from tissue; host or cells: peripheral tissues of living human subjects (liver, kidney, gastrointestinal tract, capillary endothelium)
T2 sequence (P20711 1-480): T1 sequence (P20711 1-480)
Procedure: ^13CO2 and ^12CO2 in exhaled breath samples is measured by IR spectrometry using the UBiT-IR300 (Meretek Diagnostics, Lafayette, CO; ^13CO2 urea breath analyzer instruction manual. Lafayette, CO: Meretek Diagnostics; 2002; A1-A2)^12 The amount of ^13CO2 present in breath samples is expressed as delta over baseline (DOB) that represents a change in the ^13CO2/^12CO2 ratio of breath samples collected before and after ^13C-labeled DDC enzyme substrate ingestion, e.g., ^13C-labeled LD. [formula]
The amount of ^13C-labeled DDC substrate absorbed and released into the breath as ^13CO2 is determined for each time point using the equation described by Amarri (Amarri et al., Clin Nutr. 14:149-54 (1995)).
The PDR is calculated using the formula: [formula] where ^13δ=[RS/RPDB)−1]×10^3 Rs=^13C:^12C in the sample RPDB=^13C:^12C in PDB (international standard PeeDeeBelemnite)=0.0112372) P is the atom % excess n is the number of labeled carbon positions δt, δ+1, δ0 are enrichments at times t, t+1 and predose respectively C is the CO2 production rate (C=300 [mmol/h]*BSA BSA=w^0.5378*h^0.3963*0.024265 (Body Surface Area) w: Weight (kg) h: Height (cm) Cmax is the highest value of DOB from the breath curve following ^13C-labeled DDC substrate. In one embodiment of the method, the ^13C-labeled DDC substrate is ^13C-labeled LD.
The present studies employed the ^13CO2 breath test method of the present invention to determine the optimal dose of CD required to optimally suppress peripheral metabolism of ^13C-labeled LD in individual subjects (i.e., Vlt 1 and Vlt 2). Briefly, a pre-breath test sample was collected in normal human subjects after overnight fasting (12 h) in a 1.3 L aluminum bag (Otsuka Pharmaceutical Co., Ltd., Tokyo, Japan). Briefly, normal human subjects ingested varying dosages (e.g., 25 mg-200 mg CD) 1 h prior to administration of 100 mg ^13C-labeled LD on three successive days. Breath samples were collected at specified intervals following administration of ^13C-labeled LD to determine peripheral metabolic decarboxylation of the drug. That is, breath samples were collected at 5 minutes intervals for 40 minutes, at 10 minutes intervals to 90 minutes and 120 minutes. Metabolism of ^13C-labeled LD in the absence of CD administration served as control. The results of these studies are summarized FIGS. 5-8. There is a dose response to the inhibition of peripheral DDC enzyme activity by the inhibitor CD.
The present studies examined the effect of CD preadministration on peripheral LD metabolism in human subjects. Briefly, normal human subjects ingested varying dosages (e.g., 25 mg-200 mg CD) either simultaneously, or up to 2 h prior to administration of ^13C-labeled LD. Breath samples were collected at specified intervals following administration of ^13C-labeled LD to determine peripheral metabolic decarboxylation of the ^13C-labeled LD. Metabolism of ^13C-labeled LD in the absence of CD administration served as control. The results of these studies are summarized below in Table 1 as well as FIGS. 9-14.
In Table 1, figures in parenthesis are percent inhibition of DDC by CD. The delta over baseline of ^13CO2 is designated as DOB. The percentage of LD dose recovered as ^13CO2 is designated as PDR. The peak breath concentration of ^13CO2 is designated as Cmax.
Breath samples are collected at 5 min time points up to 40 min and at 10 min intervals to 90 min and at 120 min after ingestion of ^13C-labeled LD. The breath samples are collected by having the subject momentarily holding their breath for 3 seconds prior to exhaling into a sample collection bag. The breath samples are analyzed on a UBiT IR-300 spectrophotometer (Meretek, Denver, Colo.) to determine the ^13CO2/^12CO2 ratio in expired breath, or sent to a reference lab. Optionally, varying doses (10-400 mg) of CD are orally administered to the subject (10 min-6 h) prior to administration of the ^13C-labeleld LD.

[4] = subject Vlt 1, CD 25 mg 1 h prior to LD
[5] = subject Vlt 1, CD 25 mg simultaneous with LD
[6] = subject Vlt 1, CD 50 mg 1 h prior to LD
[7] = subject Vlt 1, CD 50 mg simultaneous with LD
[8] = subject Vlt 1, CD 100 mg 1 h prior to LD
[9] = subject Vlt 1, CD 100 mg simultaneous with LD
[10] = subject Vlt 2, CD 50 mg 1 h prior to LD
[11] = subject Vlt 2, CD 50 mg simultaneous with LD
[12] = subject Vlt 2, CD 100 mg 1 h prior to LD
[13] = subject Vlt 2, CD 100 mg simultaneous with LD
[14] = subject Vlt 2, CD 200 mg 1 h prior to LD
[15] = subject Vlt 2, CD 200 mg simultaneous with LD

SMILES: C[C@@](Cc1ccc(O)c(O)c1)(NN)C(=O)O [CD, (−)-L-a-hydrazino-a-methyl-b-(3,4-dihydroxybenzene) propanoic acid monohydrate]
- saturation of peripheral DDC activity [1]: not saturated
- absorption of CD among human subjects [2]: variable
- suppression of peripheral decarboxylation, simultaneous ingestion of CD/LD ([3]; 25 mg or 50 mg dose of CD and 100 mg of LD, simultaneous): did not completely suppress
- suppression of DDC, CD administered 1 h prior to LD dose ([3]; Vlt 1 and Vlt 2): maximal suppression
- inhibition of peripheral DDC enzyme activity, dependence on CD dose ([3]; Vlt 1 and Vlt 2, 25 mg-200 mg CD 1 h prior to 100 mg 13C-labeled LD): dose response
- level of peripheral metabolism of 13C-labeled LD, CD 1 h prior versus 2 h prior to LD ([3]; human subject): no significant difference
- inhibition of peripheral metabolism of 13C-labeled LD, CD prior (1 h or 2 h) compared to simultaneous ([3]; normal human subjects): greater
- peripheral metabolism of 13C-labeled LD versus control level ([3]; normal human subjects, all concentrations of CD tested): significantly inhibited
- DOB20: DOB value at 20 minutes after administration of 13C-labeled LD [3, 4]: 25.8
- PDR40: PDR value at 40 minutes after administration of 13C-labeled LD [3, 4]: 12.7%
- percent inhibition of DDC by CD (Cmax) [3, 4]: 54%
- percent inhibition of DDC by CD (DOB20) [3, 4]: 43%
- percent inhibition of DDC by CD (PDR40) [3, 4]: 57%
- DOB20: DOB value at 20 minutes after administration of 13C-labeled LD [3, 5]: 35.6
- PDR40: PDR value at 40 minutes after administration of 13C-labeled LD [3, 5]: 18.7%
- percent inhibition of DDC by CD (Cmax) [3, 5]: 20%
- percent inhibition of DDC by CD (DOB20) [3, 5]: 22%
- percent inhibition of DDC by CD (PDR40) [3, 5]: 37%
- DOB20: DOB value at 20 minutes after administration of 13C-labeled LD [3, 6]: 6.8
- PDR40: PDR value at 40 minutes after administration of 13C-labeled LD [3, 6]: 3.6%
- percent inhibition of DDC by CD (Cmax) [3, 6]: 88%
- percent inhibition of DDC by CD (DOB20) [3, 6]: 85%
- percent inhibition of DDC by CD (PDR40) [3, 6]: 88%
- DOB20: DOB value at 20 minutes after administration of 13C-labeled LD [3, 7]: 25.5
- PDR40: PDR value at 40 minutes after administration of 13C-labeled LD [3, 7]: 11.7%
- percent inhibition of DDC by CD (Cmax) [3, 7]: 57%
- percent inhibition of DDC by CD (PDR40) [3, 7]: 61%
- DOB20: DOB value at 20 minutes after administration of 13C-labeled LD [3, 8]: 10.6
- PDR40: PDR value at 40 minutes after administration of 13C-labeled LD [3, 8]: 5.3%
- percent inhibition of DDC by CD (Cmax) [3, 8]: 82%
- percent inhibition of DDC by CD (DOB20) [3, 8]: 77%
- percent inhibition of DDC by CD (PDR40) [3, 8]: 82%
- DOB20: DOB value at 20 minutes after administration of 13C-labeled LD [3, 9]: 16.5
- PDR40: PDR value at 40 minutes after administration of 13C-labeled LD [3, 9]: 9.1%
- percent inhibition of DDC by CD (Cmax) [3, 9]: 70%
- percent inhibition of DDC by CD (DOB20) [3, 9]: 64%
- percent inhibition of DDC by CD (PDR40) [3, 9]: 69%
- DOB20: DOB value at 20 minutes after administration of 13C-labeled LD [3, 10]: 12.6
- PDR40: PDR value at 40 minutes after administration of 13C-labeled LD [3, 10]: 8.3%
- percent inhibition of DDC by CD (Cmax) [3, 10]: 48%
- percent inhibition of DDC by CD (DOB20) [3, 10]: 66%
- percent inhibition of DDC by CD (PDR40) [3, 10]: 56%
- DOB20: DOB value at 20 minutes after administration of 13C-labeled LD [3, 11]: 15.4
- PDR40: PDR value at 40 minutes after administration of 13C-labeled LD [3, 11]: 11.0%
- percent inhibition of DDC by CD (Cmax) [3, 11]: 32%
- percent inhibition of DDC by CD (DOB20) [3, 11]: 58%
- percent inhibition of DDC by CD (PDR40) [3, 11]: 41%
- DOB20: DOB value at 20 minutes after administration of 13C-labeled LD [3, 12]: 13.5
- PDR40: PDR value at 40 minutes after administration of 13C-labeled LD [3, 12]: 7.8%
- percent inhibition of DDC by CD (Cmax) [3, 12]: 63%
- percent inhibition of DDC by CD (DOB20) [3, 12]: 63%
- percent inhibition of DDC by CD (PDR40) [3, 12]: 59%
- DOB20: DOB value at 20 minutes after administration of 13C-labeled LD [3, 13]: 26.7
- PDR40: PDR value at 40 minutes after administration of 13C-labeled LD [3, 13]: 14.1%
- percent inhibition of DDC by CD (Cmax) [3, 13]: 27%
- percent inhibition of DDC by CD (DOB20) [3, 13]: 27%
- percent inhibition of DDC by CD (PDR40) [3, 13]: 25%
- DOB20: DOB value at 20 minutes after administration of 13C-labeled LD [3, 14]: 8.8
- PDR40: PDR value at 40 minutes after administration of 13C-labeled LD [3, 14]: 5.7%
- percent inhibition of DDC by CD (Cmax) [3, 14]: 75%
- percent inhibition of DDC by CD (DOB20) [3, 14]: 76%
- percent inhibition of DDC by CD (PDR40) [3, 14]: 70%
- DOB20: DOB value at 20 minutes after administration of 13C-labeled LD [3, 15]: 20.5
- PDR40: PDR value at 40 minutes after administration of 13C-labeled LD [3, 15]: 12.0%
- percent inhibition of DDC by CD (Cmax) [3, 15]: 44%
- percent inhibition of DDC by CD (PDR40) [3, 15]: 36%
